From patent publication US9375434B2, “Antitumor effect potentiator composed of imidazooxazine compound” (Taiho Pharmaceutical Co., Ltd., priority 2012, dated 2016)

Assays:
[1] = test system: Human ovarian cancer cell line (A2780); assay: Potentiation of antitumor effect of carboplatin, A2780 subcutaneous implant (Test Example 3); assay type: in vivo, nude rats; settings: carboplatin 50 mg/kg/day i.v. day 1, 8
Description: In the figure, the asterisk represents a result having a statistically significant difference compared with the single-drug administration group. FIG. 1 and Table 10 show the results. […] Carboplatin was prepared by diluting a […] injection (Bristol-Myers Squibb, 50 mg/5 mL) two-fold with physiological saline to enable administration at a carboplatin dose of 50 mg/kg/day. Further, the test liquid of Compound-I was prepared by adjusting its dose to 16 mg/kg/day. […] The single-drug administration group was administered 0.5% HPMC or a physiological saline as a vehicle instead of Compound-I or carboplatin. […] FIG. 5 and Table 12 show the results. […] The effect of the combined administration was also statistically determined in the same manner as in Test Example 1. In the figure and the table, the asterisk represents a result having a statistically significant difference compared with the single-drug administration group.

[2] = test system: Human stomach cancer cell line (NCI-N87); assay: Potentiation of antitumor effect of paclitaxel, NCI-N87 subcutaneous implant in nude mice (Test Example 2); assay type: in vivo, BALB/cA Jcl-nu/nu mice; settings: paclitaxel 60 mg/kg/day i.v. day 1, 8
Description: In the figure, the asterisk represents a result having a statistically significant difference compared with the single-drug administration group. FIG. 1 and Table 10 show the results. […] Ltd.) was prepared to enable administration at a paclitaxel dose of 60 mg/kg/day. Further, test liquids for the groups receiving only Compound-I were prepared to enable administration at Compound-I doses of 8 mg/kg/day, 16 mg/kg/day, and 24 mg/kg/day. […] In the groups receiving the two drugs, Compound-I was administered at doses of 8 mg/kg/day, 16 mg/kg/day, and 24 mg/kg/day, and paclitaxel was administered at a dose of 60 mg/kg/day. The evaluation was performed in the same manner as in Test Example 1. The effect of the combined administration was also statistically determined in the same manner as in Test Example 1. In the figure and the table, the asterisk represents a result having a statistically significant difference compared with the single-drug administration group. FIG. 3 and Table 11 show the results.

[3] = test system: Human ovarian cancer A2780 cell line; assay: Potentiation of antitumor effect of paclitaxel, A2780 subcutaneous implant in nude mice (Test Example 1); assay type: in vivo, BALB/cA Jcl-nu/nu mice; settings: paclitaxel 60 mg/kg/day i.v. day 1, 8
Description: Human ovarian cancer A2780 cell line was subcutaneously implanted into the right flank of 7-week-old male BALB/cA Jcl-nu/nu mice. After the implant, the length (mm) and the width (mm) of the tumor were measured, and the tumor volume (TV) was calculated. Thereafter, the mice were divided into groups so that the average TV is equalized in each group. The day of grouping (n=5) is referred to as Day 0. […] Test liquids for the groups receiving only Compound-I were prepared by diluting Compound-I with 0.5% hydroxypropyl methylcellulose (HPMC) so as to enable administration at a Compound-I dose of 8 mg/kg/day, 16 mg/kg/day, and 24 mg/kg/day. […] In the groups receiving the two drugs, Compound-I was administered at doses of 8 mg/kg/day, 16 mg/kg/day, and 24 mg/kg/day, and paclitaxel was administered at a dose of 60 mg/kg/day. […] In the figure, the asterisk represents a result having a statistically significant difference compared with the single-drug administration group. FIG. 1 and Table 10 show the results.

[4] = test system: Human stomach cancer cell line (NCI-N87); assay: Potentiation of antitumor effect of lapatinib, NCI-N87 subcutaneous implant in nude mice (Test Example 4); assay type: in vivo, BALB/cA Jcl-nu/nu mice; settings: lapatinib 100 mg/kg/day p.o. day 1-14 (q.d.)
Description: In the figure, the asterisk represents a result having a statistically significant difference compared with the single-drug administration group. FIG. 1 and Table 10 show the results. […] Lapatinib was prepared by adjusting its dose to 100 mg/kg/day. Further, the test liquid of Compound-I was prepared by adjusting its dose to 16 mg/kg/day. […] The effect of the combined administration was also statistically determined in the same manner as in Test Example 1. In the figure and the table, the asterisk represents a result having a statistically significant difference compared with the single-drug administration group. FIG. 7 and Table 13 show the results.

[5] = test system: Human ovarian cancer cell line (A2780); assay: Potentiation of antitumor effect of irinotecan, A2780 subcutaneous implant in nude mice (Test Example 5); assay type: in vivo, BALB/cA Jcl-nu/nu mice; settings: irinotecan 75 mg/kg/day day 1, 8; route printed p.o.
Description: (§1) As an index of antitumor effect, the TV at Day 15 was measured for each of the drug administration groups, and the relative tumor volume (RTV) relative to Day 1 and T/C (%) were calculated by the following formulas to evaluate the antitumor effect.
TV (mm^3)=(length×width^2)/2 RTV=(TV at Day 15)/(TV at Day 1) T/C(%)=(average RTV value of the test liquid administration group)/(average RTV value of the control group)×100
Human ovarian cancer cell line (A2780) was subcutaneously implanted into the right flank of 7-week-old male BALB/cA Jcl-nu/nu mice, and was used in the same manner as in Test Example 1. […] Further, the test liquid of Compound-I was prepared by adjusting its dose to 16 mg/kg/day.
The effect of the combined administration was also statistically determined in the same manner as in Test Example 1. […] FIG. 9 and Table 14 show the results. Further, the change in the body weight over time was evaluated as an index of toxicity in the same manner as in Test Example 1.

[6] = test system: Human ovarian cancer cell line (A2780); assay: Potentiation of antitumor effect of doxorubicin, A2780 subcutaneous implant in nude mice (Test Example 6); assay type: in vivo, BALB/cA Jcl-nu/nu mice; settings: doxorubicin 7 mg/kg/day day 1, 8
Description: In the groups receiving only Compound-I, the test liquid was prepared by diluting Compound-I with 0.5% HPMC to enable administration at a Compound-I dose of 16 mg/kg/day. […] The effect of the combined administration was also statistically determined in the same manner as in Test Example 1.

[7] = test system: Human stomach cancer cell line (NCI-N87); assay: Potentiation of antitumor effect of everolimus, NCI-N87 subcutaneous implant in nude mice (Test Example 7); assay type: in vivo, BALB/cA Jcl-nu/nu mice; settings: everolimus 5 mg/kg/day p.o. day 1-14
Description: as §1, with “effect. […] In the figure, the asterisk represents a result having a statistically significant difference compared with the single-drug administration group.” for “effect.”
FIG. 1 and Table 10 show the results. TV (mm^3)=(length×width^2)/2 RTV=(TV at Day 15)/(TV at Day 1) T/C(%)=(average RTV value of the test liquid administration group)/(average RTV value of the control group)×100
Human stomach cancer cell line (NCI-N87) was subcutaneously implanted into the right flank of 7-week-old male BALB/cA Jcl-nu/nu mice, and was used in the same manner as in Test Example 1.
In the group receiving only everolimus (IS Chemical Technology), the test liquid was prepared to enable administration at an everolimus dose of 5 mg/kg/day. A vehicle of 5% ethyl alcohol/5% PEG400/4% Tween 20/86% distilled water was used. In the groups receiving only Compound-I, the test liquid was prepared by diluting Compound-I with 0.5% HPMC to enable administration at a Compound-I dose of 16 mg/kg/day. In the combined administration group, Compound-I was administered at a dose of 16 mg/kg/day, and everolimus was administered at a dose of 5 mg/kg/day. Both Compound-I and everolimus were orally administered once a day for 14 days from Day 1, and the evaluation was performed in the same manner as in Test Example 1. FIG. 13 and Table 16 show the results.
In the figure and the table, the asterisk represents a result having a statistically significant difference compared with the single-drug administration group.

## N.N.O=C([O-])C1(C(=O)[O-])CCC1.[Pt+2] [Carboplatin, carboplatin, reference compound]
[1]
  RTV day 15 Mean ± SD: 20.99 ± 4.57
  T/C (%): 82%

## CC(=O)O[C@H]1C(=O)[C@@]2(C)[C@H]([C@H](OC(=O)c3ccccc3)[C@]3(O)C[C@H](OC(=O)[C@H](O)[C@@H](NC(=O)c4ccccc4)c4ccccc4)C(C)=C1C3(C)C)[C@]1(OC(C)=O)CO[C@@H]1C[C@@H]2O [paclitaxel, reference compound]
[2]
  RTV day 15 Mean ± SD: 1.09 ± 0.40
  T/C (%): 32%
[3]
  RTV day 15 Mean ± SD: 6.96 ± 1.41
  T/C (%): 27%

## CS(=O)(=O)CCNCc1ccc(-c2ccc3ncnc(Nc4ccc(OCc5cccc(F)c5)c(Cl)c4)c3c2)o1 [Lapatinib, lapatinib, reference compound]
[4]
  RTV day 15 Mean ± SD: 1.37 ± 0.28
  T/C (%): 51%

## CCc1c2c(nc3ccc(OC(=O)N4CCC(N5CCCCC5)CC4)cc13)-c1cc3c(c(=O)n1C2)COC(=O)[C@]3(O)CC [irinotecan, reference compound]
[5]
  RTV day 15 Mean ± SD: 11.92 ± 3.68

## COc1cccc2c1C(=O)c1c(O)c3c(c(O)c1C2=O)C[C@@](O)(C(=O)CO)C[C@@H]3O[C@H]1C[C@H](N)[C@H](O)[C@H](C)O1 [Doxorubicine, doxorubicin, reference compound]
[6]
  T/C (%): 45%

## CO[C@H]1C[C@@H]2CC[C@@H](C)[C@@](O)(O2)C(=O)C(=O)N2CCCC[C@H]2C(=O)O[C@H]([C@H](C)C[C@@H]2CC[C@@H](OCCO)[C@H](OC)C2)CC(=O)[C@H](C)/C=C(\C)[C@@H](O)[C@@H](OC)C(=O)[C@H](C)C[C@H](C)/C=C/C=C/C=C/1C [Everolimus, everolimus, reference compound]
[7]
  RTV day 15 Mean ± SD: 1.32 ± 0.11
  T/C (%): 47.3%
